Key:
NIT-1 cell tumors = assay: Treatment of β-cell adenomas (insulinomas) in vivo, ICR/scid mice injected IP with NIT-1 cells; conditions: ICR/scid mice with NIT-1 cells; genes via liposomes IP day 31, GCV 40 mg/kg IP seven days
Experimental: To estimate tumor growth blood glucose was measured from the tail vein using a glucometer every other day.
Twenty-seven female ICR/scid mice, age 6-10 weeks old underwent intraperitoneal injections of 5×10^6 NIT-1 cells and nine female ICR/scid mice, age 6-10 weeks old underwent intraperitoneal injections of PBS. At day 31, the mice were randomized to receive either the RIP-tk gene, the RIPlacZ gene, or nothing. The RIP-lac-Z construct served both as a control and to localize gene expression. The genes were delivered via liposomes IP (liposomes provided by Dr. Nancy Smyth-Templeton Center for Gene Therapy and Department of Cell Biology, Baylor College of Medicine) and mixed as described (Smyth-Templeton N, et al., 15 Nature Biotechnology 647-652 (1997)). Six mice were randomized to receive the RIP-tk gene followed by seven days of GCV (40 mg/kg IP). Six mice were randomized to receive the RIP-lacZ gene followed by seven days of GVC (40 mg/kg IP). Six mice were randomized to receive PBS followed by seven days of GCV (40 mg/kg IP). Six mice that were inoculated with NIT-1 cells were randomized to receive seven days of PBS. […]
In another murine hypoglycemic tumor model, 5×10^6 NIT-1 cells (or PBS) were injected intraperitoneally (IP) into ICR/scid mice (n=12 per group). […] Blood glucose values, animal survival, and blue cells after X-gal staining were recorded.

CAPAN-1 cells = assay: Ganciclovir dose response curve, untransfected cells, MTS assay; format: cell-based, human; conditions: untransfected CAPAN-1 cells
Experimental: (§1) PANC-1, CAPAN-1 MIA-1 and A549 cells were plated into a ninety-six well plate at a density of 5,000 cells per well and given between 0 to 500 μg/ml of GCV to determine a dose response curve to GCV alone. The cells were treated for five days and cell viability was ascertained with an MTS assay. Results were plotted on a graph as OD 490 nm vs. GCV concentration.

A549 cells = assay: as above; format: cell-based, human; conditions: five days
Experimental: as §1

PANC-1 cells = assay: as above; format: cell-based, human; conditions: untransfected PANC-1 cells
Experimental: as §1

MIA-1 cells = assay: as above; format: cell-based, human; conditions: untransfected MIA-1 cells, five days
Experimental: as §1

NIT-1 cells = assay: as above; format: cell-based, mouse; conditions: untransfected NIT-1 cells
Experimental: (§2) Dose response curves with GCV for untransfected NIT-1 and F9 (control) cells were performed prior to cytoxicity studies with genetic constructs. NIT-1 cells were plated into a ninety-six well plate at a density of 5,000 cells per well and treated with GCV (0.1 to 2.5 μg/ml) to determine a dose response curve to GCV alone. The cells were treated daily for five days and cell viability was ascertained with an MTS assay. […] The GCV toxicity dose response curve for F9 cells resembled other cell lines (FIG. I B). […] Note that at concentrations of GCV 0.25 μg/ml and higher a significant decrease in cell survival is observed, n=8, *p<0.05, Unpaired Student t-test.

F9 cells = assay: as above; format: cell-based, mouse; conditions: n=8
Experimental: as §2

PANC-1 tumors = assay: Treatment of human ductal pancreatic adenocarcinoma tumors in vivo, ICR/scid mice injected ip with PANC-1 cells; parameters: species or system mouse; conditions: PANC-1 tumors in ICR/scid mice, with GCV 40 mg/kg ip 7 days
Experimental: The effectiveness of RIPlacZ and RIP-tk gene constructs against PANC-1 was then studied in vivo using a SCID mouse model. SCID mice are immunodeficient and will not reject a human pancreatic cancer cell line. PANC-1 cells were injected intraperitoneally and tumors were visible by day 24. Once the model was established in the laboratory, the mice were treated with the gene therapy beginning at day 24 post-tumor-injection.
Six mice received seven days of PBS IP.
Three additional mice inoculated with PANC-1 cells received the RIPlacZ gene and were sacrificed thirty-six hours later.
Additional injected mice with tumors (n=3) received RIPlacZ and their tissues were fixed and stained with X-gal. Study endpoints consisted of monitoring tumor size and the presence of blue cells after X-gal staining.

In the case of `Nc1nc(O)c2ncn(COC(CO)CO)c2n1` [GCV, Ganciclovir], the blood glucose levels (NIT-1 cell tumors) is reported as “rapid decline in blood glucose levels”, the “maximum dose of GCV one can use to treat cells in culture” value (“maximum dose of GCV one can use” for short) (CAPAN-1 cells) is reported as 15 µg/mL and the “GCV dosage significantly decreasing cell OD 490” value (CAPAN-1 cells; five days) is reported as “greater than 20 μg/ml”. The “GCV dosage significantly decreasing cell OD 490” value (A549 cells) was “greater than 50 μg/ml”, the “maximum dose of GCV one can use” value (PANC-1 cells) was 20 µg/mL and the “GCV dosage significantly decreasing cell OD 490” value (PANC-1 cells; five days, n=8) was “greater than 50 μg/ml”. The “GCV dosage significantly decreasing cell OD 490” value (MIA-1 cells) was “greater than 20 μg/ml”, the “maximum dose of GCV one can use” value (NIT-1 cells) was 0.20 µg/mL and the “GCV toxicity dose response (in words)” value (F9 cells) was “resembles that of other published cell lines”. For the same compound, the “tumor burden / tumor size (in words)” value (PANC-1 tumors) was “developed large peri-pancreatic intraperitoneal tumors”.

Source: patent US6716824B1, “Treatment of pancreatic adenocarcinoma by cytotoxic gene therapy” (priority 1999, dated 2004)
